Measurements reported in the kinase profiling compilation of Christmann-Franck et al. (2016).
Several values for one entry are separate records, joined by “and”; a condition that tells them apart may be missing. Identical values can stand only once.

Tests used:
Assay in all cases: radiometric filter-binding kinase assay
[1] = biological target: MAP3K11 (human) (UniProt Q16584); conditions: compound 100.0 µM; ATP 20 µM
[2] = biological target: MAPK12 (human) (UniProt P53778); conditions: compound 100.0 µM; ATP 5 µM
[3] = biological target: MARK2 (human) (UniProt Q7KZI7); conditions: compound 100.0 µM; ATP 20 µM
[4] = biological target: EEF2K (human) (UniProt O00418); conditions: compound 100.0 µM; ATP 5 µM
[5] = biological target: CaMK1 (human) (UniProt Q14012); conditions: compound 100.0 µM; ATP 50 µM
[6] = biological target: MAP3K5 (human) (UniProt Q99683); conditions: compound 100.0 µM; ATP 50 µM
[7] = biological target: MELK (human) (UniProt Q14680); conditions: compound 100.0 µM; ATP 50 µM
[8] = biological target: NUAK1 (human) (UniProt O60285); conditions: compound 100.0 µM; ATP 20 µM
[9] = biological target: MAPK3 (human) (UniProt P27361); conditions: compound 100.0 µM; ATP 5 µM
[10] = biological target: PAK4 (human) (UniProt O96013); conditions: compound 100.0 µM; ATP 5 µM
[11] = biological target: MARK1 (human) (UniProt Q9P0L2); conditions: compound 100.0 µM; ATP 20 µM
[12] = biological target: GCK (human) (UniProt Q12851); conditions: compound 100.0 µM; ATP 20 µM
[13] = biological target: PTK6 (human) (UniProt Q13882); conditions: compound 100.0 µM; ATP 20 µM
[14] = biological target: PRKACA (human) (UniProt P17612); conditions: compound 100.0 µM; ATP 20 µM
[15] = biological target: PDPK1 (human) (UniProt O15530); conditions: compound 100.0 µM
[16] = test system: PAK2 (human), Q13177 [T402E]; conditions: compound 100.0 µM; ATP 20 µM
[17] = biological target: YES1 (human) (UniProt P07947); conditions: compound 100.0 µM; ATP 20 µM
[18] = biological target: PHKG1 (human) (UniProt Q16816); conditions: compound 100.0 µM; ATP 50 µM
[19] = biological target: MYLK (human) (UniProt Q15746); conditions: compound 100.0 µM; ATP 50 µM
[20] = biological target: RPS6KA5 KD1 KD2 (human) (UniProt O75582); conditions: compound 100.0 µM; ATP 20 µM
[21] = biological target: AURKA (human) (UniProt O14965); conditions: compound 100.0 µM; ATP 5 µM
[22] = biological target: NEK6 (human) (UniProt Q9HC98); conditions: compound 100.0 µM; ATP 50 µM
[23] = biological target: IKBKB (human) (UniProt O14920); conditions: compound 100.0 µM; ATP 5 µM
[24] = biological target: GSK3B (human) (UniProt P49841); conditions: compound 100.0 µM; ATP 5 µM
[25] = biological target: MAPKAPK2 (human) (UniProt P49137); conditions: compound 100.0 µM; ATP 20 µM
[26] = test system: LCK (mouse); conditions: compound 100.0 µM; ATP 50 µM; accession and sequence are those of the human protein
[27] = biological target: STK16 (human) (UniProt O75716); conditions: compound 100.0 µM; ATP 50 µM
[28] = biological target: MKNK2 (human) (UniProt Q9HBH9); conditions: compound 100.0 µM; ATP 50 µM
[29] = biological target: SYK (human) (UniProt P43405); conditions: compound 100.0 µM; ATP 20 µM
[30] = biological target: IKBKE (human) (UniProt Q14164); conditions: compound 100.0 µM; ATP 50 µM
[31] = biological target: MAPKAPK5 (human) (UniProt Q8IW41); conditions: compound 100.0 µM; ATP 20 µM
[32] = biological target: ERBB4 (human) (UniProt Q15303); conditions: compound 100.0 µM; ATP 5 µM
[33] = biological target: MAP3K9 (human) (UniProt P80192); conditions: compound 100.0 µM; ATP 20 µM
[34] = biological target: ABL1 (human) (UniProt P00519); conditions: compound 100.0 µM; ATP 5 µM
[35] = biological target: MAPK8 (human) (UniProt P45983); conditions: compound 100.0 µM; ATP 20 µM

Sequence of MAPK12 (human) (P53778 whole entry, looked up): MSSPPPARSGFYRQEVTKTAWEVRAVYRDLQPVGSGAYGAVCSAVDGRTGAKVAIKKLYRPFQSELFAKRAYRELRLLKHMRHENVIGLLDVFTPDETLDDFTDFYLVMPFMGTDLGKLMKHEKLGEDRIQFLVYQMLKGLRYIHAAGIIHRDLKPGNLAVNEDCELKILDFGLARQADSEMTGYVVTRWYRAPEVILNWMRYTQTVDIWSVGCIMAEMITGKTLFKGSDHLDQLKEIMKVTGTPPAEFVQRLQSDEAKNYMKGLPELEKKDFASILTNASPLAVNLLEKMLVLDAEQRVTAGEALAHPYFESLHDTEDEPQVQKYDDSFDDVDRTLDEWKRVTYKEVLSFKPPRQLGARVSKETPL
Sequence of MYLK (human) (Q15746 whole entry, looked up): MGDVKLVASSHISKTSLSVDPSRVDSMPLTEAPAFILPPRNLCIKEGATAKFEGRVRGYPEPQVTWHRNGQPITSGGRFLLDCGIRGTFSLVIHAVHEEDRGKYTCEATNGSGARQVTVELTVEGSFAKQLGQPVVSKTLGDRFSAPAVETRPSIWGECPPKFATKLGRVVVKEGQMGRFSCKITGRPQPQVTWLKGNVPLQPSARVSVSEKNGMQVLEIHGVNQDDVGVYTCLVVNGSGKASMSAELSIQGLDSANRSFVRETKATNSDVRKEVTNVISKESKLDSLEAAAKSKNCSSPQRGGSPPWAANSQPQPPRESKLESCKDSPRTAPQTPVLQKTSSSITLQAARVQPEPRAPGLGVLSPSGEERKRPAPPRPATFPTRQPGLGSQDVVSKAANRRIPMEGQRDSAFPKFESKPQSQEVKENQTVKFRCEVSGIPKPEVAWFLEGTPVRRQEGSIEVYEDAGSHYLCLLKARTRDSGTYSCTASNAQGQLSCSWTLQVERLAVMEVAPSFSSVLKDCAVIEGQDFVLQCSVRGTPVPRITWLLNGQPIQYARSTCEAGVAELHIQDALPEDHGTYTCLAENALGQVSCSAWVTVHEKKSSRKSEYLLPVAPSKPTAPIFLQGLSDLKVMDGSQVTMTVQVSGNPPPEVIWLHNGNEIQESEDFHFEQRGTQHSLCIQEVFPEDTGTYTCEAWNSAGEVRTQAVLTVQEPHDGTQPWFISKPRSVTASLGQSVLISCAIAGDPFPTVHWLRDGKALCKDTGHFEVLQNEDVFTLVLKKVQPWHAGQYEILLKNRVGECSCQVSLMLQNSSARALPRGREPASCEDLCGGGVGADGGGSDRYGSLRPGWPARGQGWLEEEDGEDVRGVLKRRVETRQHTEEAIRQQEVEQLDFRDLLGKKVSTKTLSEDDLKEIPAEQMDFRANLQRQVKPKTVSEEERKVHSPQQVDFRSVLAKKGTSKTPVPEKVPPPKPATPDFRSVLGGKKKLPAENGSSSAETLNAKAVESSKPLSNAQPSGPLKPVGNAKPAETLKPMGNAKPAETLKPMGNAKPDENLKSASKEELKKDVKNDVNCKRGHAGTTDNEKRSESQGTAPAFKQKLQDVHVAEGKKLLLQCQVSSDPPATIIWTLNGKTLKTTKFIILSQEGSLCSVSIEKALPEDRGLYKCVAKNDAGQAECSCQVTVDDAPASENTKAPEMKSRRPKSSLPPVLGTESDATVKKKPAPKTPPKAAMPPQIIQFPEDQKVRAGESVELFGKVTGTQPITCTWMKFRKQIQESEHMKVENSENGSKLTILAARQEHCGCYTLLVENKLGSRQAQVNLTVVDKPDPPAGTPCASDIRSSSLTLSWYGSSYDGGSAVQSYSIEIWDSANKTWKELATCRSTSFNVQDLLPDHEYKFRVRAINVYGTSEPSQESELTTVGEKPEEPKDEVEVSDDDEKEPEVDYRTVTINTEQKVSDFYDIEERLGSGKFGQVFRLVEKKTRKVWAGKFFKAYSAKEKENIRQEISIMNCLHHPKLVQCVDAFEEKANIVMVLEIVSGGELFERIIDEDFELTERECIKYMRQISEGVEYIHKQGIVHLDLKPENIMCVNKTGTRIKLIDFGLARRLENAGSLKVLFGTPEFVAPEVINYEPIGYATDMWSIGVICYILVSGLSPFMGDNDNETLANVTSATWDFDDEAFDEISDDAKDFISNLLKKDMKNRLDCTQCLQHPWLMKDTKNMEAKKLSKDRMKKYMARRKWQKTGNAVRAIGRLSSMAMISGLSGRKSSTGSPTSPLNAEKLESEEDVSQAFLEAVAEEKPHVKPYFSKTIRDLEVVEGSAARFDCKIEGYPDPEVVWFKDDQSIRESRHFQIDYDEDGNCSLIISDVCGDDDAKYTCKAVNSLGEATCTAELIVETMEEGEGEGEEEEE
Sequence of GSK3B (human) (P49841 whole entry, looked up): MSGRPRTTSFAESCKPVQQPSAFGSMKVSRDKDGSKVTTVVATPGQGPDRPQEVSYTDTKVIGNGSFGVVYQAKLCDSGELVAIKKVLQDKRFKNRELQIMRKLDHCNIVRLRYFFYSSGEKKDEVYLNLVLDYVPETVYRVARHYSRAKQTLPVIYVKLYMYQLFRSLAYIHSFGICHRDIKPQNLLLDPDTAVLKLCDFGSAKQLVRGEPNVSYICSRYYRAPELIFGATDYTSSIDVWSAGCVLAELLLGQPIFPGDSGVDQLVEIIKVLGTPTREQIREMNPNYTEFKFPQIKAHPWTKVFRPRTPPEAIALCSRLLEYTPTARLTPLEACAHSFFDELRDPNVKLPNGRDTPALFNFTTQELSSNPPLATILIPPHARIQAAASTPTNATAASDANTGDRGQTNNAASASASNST
Sequence of NUAK1 (human) (O60285 whole entry, looked up): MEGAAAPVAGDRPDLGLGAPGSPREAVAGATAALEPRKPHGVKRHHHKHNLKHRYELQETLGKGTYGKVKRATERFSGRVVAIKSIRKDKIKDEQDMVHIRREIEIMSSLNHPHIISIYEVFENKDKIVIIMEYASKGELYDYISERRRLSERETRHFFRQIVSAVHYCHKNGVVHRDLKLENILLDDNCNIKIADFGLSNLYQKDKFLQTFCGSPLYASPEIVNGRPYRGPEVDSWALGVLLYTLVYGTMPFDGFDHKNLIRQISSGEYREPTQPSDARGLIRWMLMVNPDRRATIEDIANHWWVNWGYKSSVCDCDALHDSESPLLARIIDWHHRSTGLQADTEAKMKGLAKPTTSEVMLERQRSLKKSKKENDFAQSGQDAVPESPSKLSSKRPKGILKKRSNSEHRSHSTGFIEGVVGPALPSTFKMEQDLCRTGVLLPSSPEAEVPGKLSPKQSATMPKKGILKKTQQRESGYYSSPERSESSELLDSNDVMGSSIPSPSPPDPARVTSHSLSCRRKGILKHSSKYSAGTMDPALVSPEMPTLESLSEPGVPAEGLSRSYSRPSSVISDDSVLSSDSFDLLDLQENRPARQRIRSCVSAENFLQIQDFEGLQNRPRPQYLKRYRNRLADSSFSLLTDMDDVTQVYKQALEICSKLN
Sequence of IKBKE (human) (Q14164 whole entry, looked up): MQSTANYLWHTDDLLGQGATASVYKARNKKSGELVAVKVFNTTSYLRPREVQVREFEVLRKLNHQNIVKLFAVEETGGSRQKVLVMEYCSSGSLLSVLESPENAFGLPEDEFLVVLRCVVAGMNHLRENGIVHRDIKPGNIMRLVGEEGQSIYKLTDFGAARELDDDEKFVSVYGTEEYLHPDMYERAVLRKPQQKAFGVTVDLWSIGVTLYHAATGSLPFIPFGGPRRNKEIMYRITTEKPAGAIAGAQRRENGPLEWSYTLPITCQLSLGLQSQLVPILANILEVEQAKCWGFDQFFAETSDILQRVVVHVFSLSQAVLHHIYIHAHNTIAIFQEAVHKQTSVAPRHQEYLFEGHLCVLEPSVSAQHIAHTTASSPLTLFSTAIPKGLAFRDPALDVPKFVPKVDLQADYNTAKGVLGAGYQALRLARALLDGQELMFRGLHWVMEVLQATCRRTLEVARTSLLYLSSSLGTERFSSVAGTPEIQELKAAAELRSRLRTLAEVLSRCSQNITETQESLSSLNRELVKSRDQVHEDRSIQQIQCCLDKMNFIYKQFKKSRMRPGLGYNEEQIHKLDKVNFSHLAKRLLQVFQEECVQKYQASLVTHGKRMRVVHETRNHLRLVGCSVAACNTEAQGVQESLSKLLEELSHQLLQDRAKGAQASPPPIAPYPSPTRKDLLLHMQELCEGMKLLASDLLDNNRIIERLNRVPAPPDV
Sequence of MKNK2 (human) (Q9HBH9 whole entry, looked up): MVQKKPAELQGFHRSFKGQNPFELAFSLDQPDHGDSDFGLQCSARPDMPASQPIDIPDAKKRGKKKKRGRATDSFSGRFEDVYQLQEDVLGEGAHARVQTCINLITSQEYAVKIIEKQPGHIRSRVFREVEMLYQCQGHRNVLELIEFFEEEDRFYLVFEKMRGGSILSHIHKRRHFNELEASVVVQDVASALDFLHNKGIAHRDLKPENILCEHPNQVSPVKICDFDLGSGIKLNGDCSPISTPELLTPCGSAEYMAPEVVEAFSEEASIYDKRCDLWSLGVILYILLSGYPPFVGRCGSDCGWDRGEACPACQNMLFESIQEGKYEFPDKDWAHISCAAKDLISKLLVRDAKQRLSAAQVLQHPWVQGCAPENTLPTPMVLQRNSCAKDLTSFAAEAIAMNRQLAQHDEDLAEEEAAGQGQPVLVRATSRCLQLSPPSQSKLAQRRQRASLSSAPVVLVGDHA
Sequence of MAPKAPK5 (human) (Q8IW41 whole entry, looked up): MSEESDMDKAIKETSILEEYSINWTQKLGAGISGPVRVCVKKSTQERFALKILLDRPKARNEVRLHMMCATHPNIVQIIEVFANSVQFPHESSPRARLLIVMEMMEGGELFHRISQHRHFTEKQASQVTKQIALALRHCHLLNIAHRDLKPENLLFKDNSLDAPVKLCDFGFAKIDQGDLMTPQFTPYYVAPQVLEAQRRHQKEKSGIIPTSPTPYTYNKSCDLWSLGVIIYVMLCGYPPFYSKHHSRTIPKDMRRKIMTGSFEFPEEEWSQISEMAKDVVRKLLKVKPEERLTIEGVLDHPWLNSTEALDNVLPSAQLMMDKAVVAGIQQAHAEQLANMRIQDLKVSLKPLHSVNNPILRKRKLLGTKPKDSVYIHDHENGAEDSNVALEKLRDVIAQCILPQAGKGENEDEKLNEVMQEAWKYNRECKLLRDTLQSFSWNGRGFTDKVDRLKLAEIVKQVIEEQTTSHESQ

Row | inhibition [1] [%] | inhibition [2] [%] | inhibition [3] [%] | inhibition [4] [%] | inhibition [5] [%] | inhibition [6] [%] | inhibition [7] [%] | inhibition [8] [%] | inhibition [9] [%] | inhibition [10] [%] | inhibition [11] [%] | inhibition [12] [%] | inhibition [13] [%] | inhibition [14] | inhibition ([15]; ATP 20 µM) [%] | inhibition ([15]; ATP 50 µM) [%] | inhibition [16] [%] | inhibition [17] [%] | inhibition [18] [%] | inhibition [19] [%] | further results | Compound
1 | 17 | 24 | 18 | 13 | 17 | 25 | 17 | 33 | 13 | 47 | 6 | 39 | 1 | 0% | 15 | 13 | 0 | 35 | 68 | 0 | inhibition [20]: 11%; inhibition [21]: 13%; inhibition [22]: 21%; inhibition [23]: 10%; inhibition [24]: 73%; inhibition [25]: 7%; inhibition [26]: 29%; inhibition [27]: 0%; inhibition [28]: 35%; inhibition [29]: 31%; inhibition [30]: 23%; inhibition [31]: 6%; inhibition [32]: 19%; inhibition [33]: 43%; inhibition [34]: 48%; inhibition [35]: 2% | CC(=O)Nc1nc2cnc(-c3ccccc3)cn2n1
2 | 8 | 0 | 0 | 2 | 66 | 19 | 22 | 0 | 26 | 30 | 27 | 0 | 16 | 34% and 38% | 41 | 25 | 0 | 0 | 13 | 0 | inhibition [20]: 22%; inhibition [21]: 1%; inhibition [22]: 60%; inhibition [23]: 29%; inhibition [24]: 62%; inhibition [25]: 8%; inhibition [26]: 29%; inhibition [27]: 12%; inhibition [28]: 21%; inhibition [29]: 0%; inhibition [30]: 32%; inhibition [31]: 5%; inhibition [32]: 17%; inhibition [33]: 4%; inhibition [34]: 34%; inhibition [35]: 8% | COc1ccc(-c2cc3c(=O)[nH]cnc3s2)cc1OC
3 | 23 | 0 | 0 | 39 | 75 | 54 | 25 | 0 | 19 | 34 | 31 | 7 | 50 | 17% and 42% | 16 | 53 | 0 | 0 | 9 | 8 | inhibition [20]: 24%; inhibition [21]: 21%; inhibition [22]: 44%; inhibition [23]: 37%; inhibition [24]: 70%; inhibition [25]: 15%; inhibition [26]: 40%; inhibition [27]: 4%; inhibition [28]: 30%; inhibition [29]: 0%; inhibition [30]: 36%; inhibition [31]: 0%; inhibition [32]: 33%; inhibition [33]: 0%; inhibition [34]: 15%; inhibition [35]: 8% | O=C(c1cccc(-c2cc3c(=O)[nH]cnc3s2)c1)N1CCOCC1
